A word on the IC50: it is the point on the concentration scale where inhibition reaches its midpoint. Read a low IC50 as inhibition by little substance.

Values joined by “and” are separate entries in the source; they are usually repeats but may differ in a detail not shown here. Identical values can stand only once.

The text below walks through data of patent US10105367B2, “Therapeutic thiophene-, furan-, and pyridine-fused azolopyrimidin-5-(6h)-ones” (Dart Neuroscience (Cayman) Ltd., priority 2012, dated 2018).

One assay deals with human PDE1B (Homo sapiens (Human), UniProt Q01064). Nature of the assay: PDE1B inhibitory assay (IMAP TR-FRET). The settings on record: PDE1B pIC50, negative log of half-maximal molar inhibitory concentration; 200 nM FAM-cAMP, Calmodulin, CaCl2.
`COCCN1CCN(Cc2cnc3c(c2)c2ncnn2c(=O)n3Cc2ccc(OC)cc2)CC1` [Example 238] returned an IC50 of 1 to 10 µM. On the same count and under the same terms, the result for `COCCN(Cc1cnc2c(c1)c1ncnn1c(=O)n2Cc1ccc(OC)cc1)C(C)C` [Example 239] reads 0.1 to 1 µM; that for `COc1ccc(Cn2c(=O)n3ncnc3c3ncc(CN4CCN(C)CC4)cc32)cc1` [Example 240], 1 to 10 µM. Same read-out and setting: the result for `COc1ccc(Cn2c(=O)n3ncnc3c3ncc(CN4CCOCC4)cc32)cc1` [Example 241] reads 1 to 10 µM; that for `COc1ccc(Cn2c(=O)n3ncnc3c3ncc(CN4CCCCC4)cc32)cc1` [Example 242], 1 to 10 µM. For the compound `COc1ccc(Cn2c(=O)n3ncnc3c3ncc(CN4CCSCC4)cc32)cc1` [Example 243], the IC50 fell in the range of 1 to 10 µM. The same measure, in the same setting: the result for `COc1ccc(Cn2c(=O)n3ncnc3c3ncc(CN4C[C@@H](C)O[C@@H](C)C4)cc32)cc1` [Example 244] reads 1 to 10 µM. Same read-out and setting: under `COCCN(C)Cc1cnc2c(c1)c1ncnn1c(=O)n2Cc1ccc(OC)cc1` [Example 245] stands 0.1 to 1 µM; under `COc1ccc(Cn2c(=O)n3ncnc3c3cc(CN4C[C@@H](C)OC[C@H]4C)cnc32)cc1` [Example 248], 0.1 to 1 µM; under `COc1ccc(Cn2c(=O)n3ncnc3c3cc(CN4CCNCC4)cnc32)cc1` [Example 249, 6-(4-Methoxybenzyl)-9-(piperazin-1-ylmethyl)pyrido[3,2-e][1,2,4]triazolo[1,5-c]pyrimidin-5(6H)-one], 1 to 10 µM. Regarding `COc1ccc(Cn2c(=O)n3ncnc3c3cc(CN4C[C@@H](C)N[C@@H](C)C4)cnc32)cc1` [Example 250], the IC50 lay in the range of 1 to 10 µM. Turning to `COc1ccc(Cn2c(=O)n3ncnc3c3cc(CN4CCN(CC5CCOC5)CC4)cnc32)cc1` (stereo not shown) [Example 251, 6-(4-Methoxybenzyl)-9-((4-((tetrahydrofuran-3-yl)methyl)piperazin-1-yl)methyl)pyrido[3,2-e][1,2,4]triazolo[1,5-c]pyrimidin-5(6H)-one], the IC50 lay within 1 to 10 µM. Still for that read-out and setting: the result for `COc1ccc(Cn2c(=O)n3ncnc3c3cc(CN4CCN(S(C)(=O)=O)CC4)cnc32)cc1` [Example 252, 6-(4-methoxybenzyl)-9-((4-(methylsulfonyl)piperazin-1-yl)methyl)pyrido[3,2-e][1,2,4]triazolo[1,5-c]pyrimidin-5(6H)-one] reads 0.1 to 1 µM; that for `COc1ccc(Cn2c(=O)n3ncnc3c3cc(CN4CCN(C(=O)C(F)(F)F)CC4)cnc32)cc1` [Example 254], 0.1 to 1 µM; that for `COc1ccc(Cn2c(=O)n3ncnc3c3cc(CN4CCN(C(=O)C5CCOC5)CC4)cnc32)cc1` (stereo not shown) [Example 255], 0.1 to 1 µM. On the same count and under the same terms, under `COc1ccc(Cn2c(=O)n3ncnc3c3ccc(CN4CCOCC4)nc32)cc1` [Example 256, 6-(4-Methoxybenzyl)-8-(morpholinomethyl)pyrido[3,2-e][1,2,4]triazolo[1,5-c]pyrimidin-5(6H)-one] stands 1 to 10 µM; under `COc1ccc(Cn2c(=O)n3ncnc3c3ccc(CN4C[C@@H](C)O[C@@H](C)C4)nc32)cc1` [Example 257], 0.1 to 1 µM; under `COc1ccc(Cn2c(=O)n3ncnc3c3ccc(CNCC4(C)COC4)nc32)cc1` [Example 258], 1 to 10 µM. Same read-out and setting: the result for `COc1ccc(Cn2c(=O)n3ncnc3c3ccc(CN(C)CC4CCOC4)nc32)cc1` (stereo not shown) [Example 259] reads 0.1 to 1 µM. `COc1ccc(Cn2c(=O)n3ncnc3c3ccc(CN(C)C4CC4)nc32)cc1` [Example 260]: the IC50 was in the range of 0.1 to 1 µM. The same measure, in the same setting: the result for `COc1ccc(Cn2c(=O)n3ncnc3c3ccc(CN4CCN(S(C)(=O)=O)CC4)nc32)cc1` [Example 261] reads 0.1 to 1 µM. Still for that read-out and setting: the result for `COc1ccc(Cn2c(=O)n3ncnc3c3ccc(CNCc4ccccc4)nc32)cc1` [Example 262] reads 0.1 to 1 µM; that for `COc1ccc(Cn2c(=O)n3ncnc3c3ccc(CNc4ccccc4)nc32)cc1` [Example 263], 0.1 to 1 µM; that for `COc1ccc(Cn2c(=O)n3ncnc3c3ccc(CN4Cc5ccccc5C4)nc32)cc1` [Example 264], 0.1 to 1 µM.

`COc1ccc(Cn2c(=O)n3ncnc3c3cc(C(C)=O)cnc32)cc1` [Example 265, 9-Acetyl-6-(4-methoxybenzyl)pyrido[3,2-e][1,2,4]triazolo[1,5-c]pyrimidin-5(6H)-one] showed an IC50 of 0.1 to 1 µM. Still for that read-out and setting: under `COc1ccc(Cn2c(=O)n3ncnc3c3cc(C(O)CN4CCOCC4)cnc32)cc1` (stereo not shown) [Example 267, 9-(1-Hydroxy-2-morpholinoethyl)-6-(4-methoxybenzyl)pyrido[3,2-e][1,2,4]triazolo[1,5-c]pyrimidin-5(6H)-one] stands 0.1 to 1 µM; under `COc1ccc(Cn2c(=O)n3ncnc3c3cc(C(F)CN4CCOCC4)cnc32)cc1` (stereo not shown) [Example 269, 9-(1-Fluoro-2-morpholinoethyl)-6-(4-methoxybenzyl)pyrido[3,2-e][1,2,4]triazolo[1,5-c]pyrimidin-5(6H)-one], 0.1 to 1 µM; under `COc1ccc(Cn2c(=O)n3ncnc3c3cc(C(O)C(F)(F)F)cnc32)cc1` (stereo not shown) [Example 271, 6-(4-Methoxybenzyl)-9-(2,2,2-trifluoro-1-hydroxyethyl)pyrido[3,2-e][1,2,4]triazolo[1,5-c]pyrimidin-5(6H)-one], 0.1 to 1 µM. With `C[C@@H]1CN(Cc2cnc3c(c2)c2ncnn2c(=O)n3Cc2ccc(OC(F)(F)F)cc2)C[C@H](C)O1` [Example 273, 9-(((2S,6R)-2,6-Dimethylmorpholino)methyl)-6-(4-(trifluoromethoxy)benzyl)pyrido[3,2-e][1,2,4]triazolo[1,5-c]pyrimidin-5(6H)-one], the half-inhibitory concentration (IC50) is 0.1 to 1 µM and 1 to 10 µM. Still for that read-out and setting: the result for `Cc1cc(Cn2c(=O)n3ncnc3c3cc(CN4C[C@@H](C)O[C@@H](C)C4)cnc32)ccc1F` [Example 274] reads 0.1 to 1 µM; that for `C[C@@H]1CN(Cc2cnc3c(c2)c2ncnn2c(=O)n3Cc2ccc(F)cc2)C[C@H](C)O1` [Example 275], 0.1 to 1 µM. The same measure, in the same setting: under `COc1ccc(Cn2c(=O)n3ncnc3c3cc(CN4C[C@@H](C)O[C@@H](C)C4)cnc32)cc1F` [Example 276] stands 0.1 to 1 µM. On the same count and under the same terms, the result for `C[C@@H]1CN(Cc2cnc3c(c2)c2ncnn2c(=O)n3Cc2ccc(F)c(Br)c2)C[C@H](C)O1` [Example 278] reads 0.1 to 1 µM; that for `Cc1ccccc1Cn1c(=O)n2ncnc2c2cc(CN3C[C@@H](C)O[C@@H](C)C3)cnc21` [Example 283], 1 to 10 µM. The compound `C[C@@H]1CN(Cc2cnc3c(c2)c2ncnn2c(=O)n3Cc2cccc(I)c2)C[C@H](C)O1` [Example 284] had an IC50 of 0.1 to 1 µM. On the same count and under the same terms, the result for `C[C@@H]1CN(Cc2cnc3c(c2)c2ncnn2c(=O)n3Cc2cc(F)cc(F)c2)C[C@H](C)O1` [Example 285] reads 1 to 10 µM. On the same count and under the same terms, under `COc1ccc(Cn2c(=O)n3ncnc3c3cc(CN4C[C@@H](C)O[C@@H](C)C4)cnc32)c(Br)c1` [Example 286] stands 1 to 10 µM.

On to `C[C@@H]1CN(Cc2cnc3c(c2)c2ncnn2c(=O)n3Cc2ccc(OC(F)F)cc2F)C[C@H](C)O1` [Example 290], for which the IC50 is 0.1 to 1 µM.

`COc1c(F)cc(Cn2c(=O)n3ncnc3c3cc(CN4C[C@@H](C)O[C@@H](C)C4)cnc32)cc1F` [Example 291] gave an IC50 of 0.1 to 1 µM. The same measure, in the same setting: under `COc1ccc(Cn2c(=O)n3ncnc3c3cc(CN4C[C@@H](C)O[C@@H](C)C4)cnc32)c(F)c1F` [Example 292] stands 0.1 to 1 µM.

Staying with this assay, now noted: negative log of half-maximal molar inhibitory concentration; 200 nM FAM-cAMP, Calmodulin, CaCl2.
Take `COc1ccc(Cn2c(=O)n3ncnc3c3cc(CN4CCN5C(=O)OCC5C4)cnc32)cc1` (stereo not shown) [Example 246]: the “PDE1B pIC50” value is given as above 7. As to `COc1ccc(Cn2c(=O)n3ncnc3c3cc(CN4C[C@H](C)OC[C@@H]4C)cnc32)cc1` [Example 247], the “PDE1B pIC50” value was above 7.

Turning to `COc1ccc(Cn2c(=O)n3ncnc3c3cc(CN4CCN(S(=O)(=O)N(C)C)CC4)cnc32)cc1` [Example 253], the “PDE1B pIC50” value is above 7.

For the compound `COc1ccc(Cn2c(=O)n3ncnc3c3cc(C(C)N4C[C@@H](C)O[C@@H](C)C4)cnc32)cc1` (stereo partly drawn) [Example 266, 9-(1-((2S,6R)-2,6-Dimethylmorpholino)ethyl)-6-(4-methoxybenzyl)pyrido[3,2-e][1,2,4]triazolo[1,5-c]pyrimidin-5(6H)-one], the “PDE1B pIC50” value is recorded as above 7. On the same count and under the same terms, under `COc1ccc(Cn2c(=O)n3ncnc3c3cc(C(O)CN4C[C@@H](C)O[C@@H](C)C4)cnc32)cc1` (stereo partly shown) [Example 268] stands above 7; under `COc1ccc(Cn2c(=O)n3ncnc3c3cc(C(F)CN4C[C@@H](C)O[C@@H](C)C4)cnc32)cc1` (stereo partly shown) [Example 270], above 7. On the same count and under the same terms, the result for `COc1ccc(Cn2c(=O)n3ncnc3c3cc(C(N4CCOCC4)C(F)(F)F)cnc32)cc1` (stereo not shown) [Example 272, 6-(4-Methoxybenzyl)-9-(2,2,2-trifluoro-1-morpholinoethyl)pyrido[3,2-e][1,2,4]triazolo[1,5-c]pyrimidin-5(6H)-one] reads above 7; that for `COc1ccc(Cn2c(=O)n3ncnc3c3cc(CN4C[C@@H](C)O[C@@H](C)C4)cnc32)c(F)c1` [Example 277], above 7; that for `C[C@@H]1CN(Cc2cnc3c(c2)c2ncnn2c(=O)n3Cc2ccc(C#N)cc2)C[C@H](C)O1` [Example 279], below 5. Still for that read-out and setting: under `C[C@@H]1CN(Cc2cnc3c(c2)c2ncnn2c(=O)n3Cc2ccc(C(C)(C)C)cc2)C[C@H](C)O1` [Example 280] stands below 5. Regarding `C[C@@H]1CN(Cc2cnc3c(c2)c2ncnn2c(=O)n3Cc2cccc(C#N)c2)C[C@H](C)O1` [Example 281], the “PDE1B pIC50” value is listed as below 5. Consider `C[C@@H]1CN(Cc2cnc3c(c2)c2ncnn2c(=O)n3Cc2ccc(S(C)(=O)=O)cc2)C[C@H](C)O1` [Example 282], for which the “PDE1B pIC50” value is listed as below 5. The same measure, in the same setting: under `COc1cc(F)c(Cn2c(=O)n3ncnc3c3cc(CN4C[C@@H](C)O[C@@H](C)C4)cnc32)c(F)c1` [Example 287] stands above 7; under `C[C@@H]1CN(Cc2cnc3c(c2)c2ncnn2c(=O)n3Cc2ccc3cnn(C)c3c2)C[C@H](C)O1` [Example 288], below 5. The same measure, in the same setting: the result for `C[C@@H]1CN(Cc2cnc3c(c2)c2ncnn2c(=O)n3Cc2ccc(-n3cccn3)cc2)C[C@H](C)O1` [Example 289] reads below 5.
